Several values for one entry are separate records, joined by “and”; a condition that tells them apart may be missing. Identical values can stand only once.
Legend:
[1] = Human studies: radiation dosimetry of subjects 1-4 (Olinda/EXM); format: in vivo
Experimental: For subjects 1-4, radiation dosimetry was calculated using Olinda/EXM based on the organ biodistribution discussed above.
Tables 7-10 show the estimate for radiation dosimetry for subjects 1˜4 of 200 MBq of ^68Ga NODAGA GSAO for individual organs and for the whole body in mSv/MBq (EDE cont.=effective dose equivalent contribution, ED Cont.=effective dose contribution). The estimated whole-body dose from the one (1) low dose CT and two (2) ultra-low dose CTs was 9.2 mSv.

[2] = system: squamous cell carcinoma lymph node metastases; experiment: Histological correlation (TUNEL) with ^68Ga-CDI uptake; format: in vivo, human; conditions: subject 3, right axillary and right cervical nodal metastases
Source text: In one subject, who proceeded to surgical excision of the tumor deposits 1 day after the ^68Ga-CDI PET scan, histological correlation of the tumor deposits were undertaken using haematoxylin and eosin staining and TUNEL staining to specifically identify dead and dying cells. Representative samples of the formalin fixed surgical specimens (following completion of all clinical analysis and excess to that required for archival purposes) from the right axillary and right cervical nodal masses were selected and provided by the reporting clinical pathologist. The tissues were fixed, rehydrated with ethanol and xylene and embedded in paraffin. A series of 4 μm thick sections were cut and stained with Haematoxylin and Eosin. Apoptotic cells were stained using the TUNEL assay kit HRP-DAB (Abcam, Cat #206386, Cambridge, MA, USA) according to manufacturer's protocol. Briefly, 4 μm sections of paraffin embedded tumor were deparaffinized in xylene and rehydrated in decreasing concentrations of ethanol. Tumor sections were permeabilized with Proteinase K for 20 min at room temperature. The endogenous peroxidase activity was quenched with 3% H2O2 for 5 min. Apoptotic cells were labelled with biotinylated Terminal deoxynucleotidyl Transferase (TdT) at 37° C. in humidified chamber for 2 h followed by a 30 min incubation with streptavidin-HRP conjugate. […]

[3] = Red Marrow, subjects 1-4 = the 7th table-the 10th table
[4] = Skin, subjects 1-4 = the 7th table-the 10th table
[5] = Small Intestine, subjects 1-4 = the 7th table-the 10th table
[6] = Spleen, subjects 1-4 = the 7th table-the 10th table
[7] = Stomach Wall, subjects 1-4 = the 7th table-the 10th table
[8] = Testes, subject 1 = the 7th table, subject 3 = the 9th table
[9] = Thymus, subjects 1-4 = the 7th table-the 10th table
[10] = Thyroid, subjects 1-4 = the 7th table-the 10th table
[11] = Total Body, subjects 1-4 = the 7th table-the 10th table
[12] = ULI Wall, subjects 1-4 = the 7th table-the 10th table
[13] = Uterus, subjects 1-4 = the 7th table-the 10th table

With `O=C(O)CNC(=O)[C@H](CSCC(=O)Nc1ccc([As](O)O)cc1)NC(=O)CC[C@H](NC(=O)CCC1C(=O)[O][68Ga]2[O]C(=O)CN3CCN(CCN1CC3)CC(=O)[O]2)C(=O)O` (some centres unmarked) [^68Ga-NODAGA-GSAO] as the compound, how does the Alpha dose [1, 3] read?
The Alpha dose was 0.00E+00 mSv/MBq.

And the Beta dose [1, 3]?
Its Beta dose is 5.39E−03 mSv/MBq and 6.61E−03 mSv/MBq and 4.29E−03 mSv/MBq and 5.25E−03 mSv/MBq.

And the “ED Cont.” value [1, 3]?
Its value is 1.09E−03 mSv/MBq and 1.30E−03 mSv/MBq and 8.70E−04 mSv/MBq and 1.13E−03 mSv/MBq.

And the “EDE Cont.” value [1, 3]?
Its value is 1.09E−03 mSv/MBq and 1.30E−03 mSv/MBq and 8.70E−04 mSv/MBq and 1.13E−03 mSv/MBq.

And the Photon dose [1, 3]?
Its Photon dose is 3.70E−03 mSv/MBq and 4.24E−03 mSv/MBq and 2.96E−03 mSv/MBq and 4.13E−03 mSv/MBq.

And the Total dose [1, 3]?
The Total dose was 9.08E−03 mSv/MBq and 1.08E−02 mSv/MBq and 7.25E−03 mSv/MBq and 9.38E−03 mSv/MBq.

And the Alpha dose [1, 4]?
Its Alpha dose is 0.00E+00 mSv/MBq.

And the “ED Cont.” value [1, 4]?
The value was 5.17E−05 mSv/MBq and 7.01E−05 mSv/MBq and 3.66E−05 mSv/MBq and 5.79E−05 mSv/MBq.

What about the “EDE Cont.” value [1, 4] of the same compound?
Its value is 0.00E+00 mSv/MBq.

What about the Photon dose [1, 4] of the same compound?
Its Photon dose is 2.03E−03 mSv/MBq and 2.32E−03 mSv/MBq and 1.63E−03 mSv/MBq and 2.26E−03 mSv/MBq.

And the Total dose [1, 4]?
Its Total dose is 5.17E−03 mSv/MBq and 7.01E−03 mSv/MBq and 3.66E−03 mSv/MBq and 5.79E−03 mSv/MBq.

And the Alpha dose [1, 5]?
Its Alpha dose is 0.00E+00 mSv/MBq.

What about the “ED Cont.” value [1, 5] of the same compound?
The value was 7.19E−05 mSv/MBq and 9.14E−05 mSv/MBq and 6.51E−05 mSv/MBq and 4.60E−05 mSv/MBq.

And the “EDE Cont.” value [1, 5]?
The value was 0.00E+00 mSv/MBq.

What about the Photon dose [1, 5] of the same compound?
Its Photon dose is 5.21E−03 mSv/MBq and 5.57E−03 mSv/MBq and 4.29E−03 mSv/MBq and 5.67E−03 mSv/MBq.

What about the Total dose [1, 5] of the same compound?
The Total dose was 1.44E−02 mSv/MBq and 1.83E−02 mSv/MBq and 1.30E−02 mSv/MBq and 9.20E−03 mSv/MBq.

What about the Alpha dose [1, 6] of the same compound?
Its Alpha dose is 0.00E+00 mSv/MBq.

What about the Beta dose [1, 6] of the same compound?
The Beta dose was 1.27E−02 mSv/MBq and 1.48E−02 mSv/MBq and 1.09E−02 mSv/MBq and 1.18E−02 mSv/MBq.

And the “ED Cont.” value [1, 6]?
Its value is 8.65E−05 mSv/MBq and 1.01E−04 mSv/MBq and 7.35E−05 mSv/MBq and 8.27E−05 mSv/MBq.

What about the Photon dose [1, 6] of the same compound?
Its Photon dose is 4.57E−03 mSv/MBq and 5.34E−03 mSv/MBq and 3.83E−03 mSv/MBq and 4.70E−03 mSv/MBq.

What about the Total dose [1, 6] of the same compound?
The Total dose was 1.73E−02 mSv/MBq and 2.02E−02 mSv/MBq and 1.47E−02 mSv/MBq and 1.65E−02 mSv/MBq.

What about the Alpha dose [1, 7] of the same compound?
Its Alpha dose is 0.00E+00 mSv/MBq.

What about the “EDE Cont.” value [1, 7] of the same compound?
Its value is 0.00E+00 mSv/MBq.

What about the Photon dose [1, 7] of the same compound?
The Photon dose was 3.93E−03 mSv/MBq and 4.97E−03 mSv/MBq and 3.12E−03 mSv/MBq and 4.01E−03 mSv/MBq.

And the Alpha dose [1, 8]?
Its Alpha dose is 0.00E+00 mSv/MBq.

What about the Beta dose [1, 8] of the same compound?
Its Beta dose is 1.37E−02 mSv/MBq and 1.22E−02 mSv/MBq.

And the “ED Cont.” value [1, 8]?
Its value is 3.65E−03 mSv/MBq and 3.27E−03 mSv/MBq.

What about the “EDE Cont.” value [1, 8] of the same compound?
Its value is 4.56E−03 mSv/MBq and 4.09E−03 mSv/MBq.

And the Photon dose [1, 8]?
Its Photon dose is 4.58E−03 mSv/MBq and 4.18E−03 mSv/MBq.

And the Total dose [1, 8]?
Its Total dose is 1.83E−02 mSv/MBq and 1.64E−02 mSv/MBq.

What about the Alpha dose [1, 9] of the same compound?
Its Alpha dose is 0.00E+00 mSv/MBq.

And the “ED Cont.” value [1, 9]?
The value was 3.06E−05 mSv/MBq and 4.18E−05 mSv/MBq and 2.16E−05 mSv/MBq and 3.38E−05 mSv/MBq.

What about the “EDE Cont.” value [1, 9] of the same compound?
The value was 0.00E+00 mSv/MBq.

What about the Photon dose [1, 9] of the same compound?
The Photon dose was 2.96E−03 mSv/MBq and 3.66E−03 mSv/MBq and 2.30E−03 mSv/MBq and 3.23E−03 mSv/MBq.

And the Total dose [1, 9]?
Its Total dose is 6.11E−03 mSv/MBq and 8.36E−03 mSv/MBq and 4.32E−03 mSv/MBq and 6.76E−03 mSv/MBq.

And the Alpha dose [1, 10]?
Its Alpha dose is 0.00E+00 mSv/MBq.

What about the Beta dose [1, 10] of the same compound?
The Beta dose was 1.12E−02 mSv/MBq and 1.19E−02 mSv/MBq and 8.46E−03 mSv/MBq and 1.34E−02 mSv/MBq.

What about the “ED Cont.” value [1, 10] of the same compound?
Its value is 7.05E−04 mSv/MBq and 7.59E−04 mSv/MBq and 5.42E−04 mSv/MBq and 8.18E−04 mSv/MBq.

What about the “EDE Cont.” value [1, 10] of the same compound?
The value was 4.23E−04 mSv/MBq and 4.55E−04 mSv/MBq and 3.25E−04 mSv/MBq and 4.91E−04 mSv/MBq.

What about the Photon dose [1, 10] of the same compound?
The Photon dose was 2.86E−03 mSv/MBq and 3.24E−03 mSv/MBq and 2.38E−03 mSv/MBq and 3.00E−03 mSv/MBq.

What about the Total dose [1, 10] of the same compound?
The Total dose was 1.41E−02 mSv/MBq and 1.52E−02 mSv/MBq and 1.08E−02 mSv/MBq and 1.64E−02 mSv/MBq.

What about the Alpha dose [1, 11] of the same compound?
Its Alpha dose is 0.00E+00 mSv/MBq.

And the Beta dose [1, 11]?
Its Beta dose is 6.33E−03 mSv/MBq and 7.76E−03 mSv/MBq and 4.94E−03 mSv/MBq and 6.96E−03 mSv/MBq.

And the “ED Cont.” value [1, 11]?
The value was 0.00E+00 mSv/MBq.

What about the “EDE Cont.” value [1, 11] of the same compound?
The value was 0.00E+00 mSv/MBq.

And the Photon dose [1, 11]?
The Photon dose was 3.44E−03 mSv/MBq and 3.84E−03 mSv/MBq and 2.77E−03 mSv/MBq and 3.92E−03 mSv/MBq.

And the Total dose [1, 11]?
The Total dose was 9.78E−03 mSv/MBq and 1.16E−02 mSv/MBq and 7.71E−03 mSv/MBq and 1.09E−02 mSv/MBq.

And the Alpha dose [1, 12]?
Its Alpha dose is 0.00E+00 mSv/MBq.

What about the “EDE Cont.” value [1, 12] of the same compound?
Its value is 0.00E+00 mSv/MBq.

And the Photon dose [1, 12]?
The Photon dose was 5.20E−03 mSv/MBq and 6.02E−03 mSv/MBq and 4.00E−03 mSv/MBq and 5.50E−03 mSv/MBq.

What about the Alpha dose ([1]; Urinary Bladder Wall, subjects 1-4 = the 7th table-the 10th table) of the same compound?
Its Alpha dose is 0.00E+00 mSv/MBq.

What about the Alpha dose [1, 13] of the same compound?
The Alpha dose was 0.00E+00 mSv/MBq.

What about the Photon dose [1, 13] of the same compound?
Its Photon dose is 1.06E−02 mSv/MBq and 8.98E−03 mSv/MBq and 8.36E−03 mSv/MBq and 1.51E−02 mSv/MBq.

What about the “estimated effective whole-body dose” value ([1]; administered activity of 200 MBq) of the same compound?
Its value is 4.3-6.8 mSv.

And the “estimated effective whole-body dose for the protocol” value ([1]; first in human protocol incl. CTs, subjects 1-4)?
The value was 13.5-15.9 mSv.

And the effective whole-body dose ([1]; range over subjects 1-4)?
The effective whole-body dose was 2.16×10^−2 to 3.38×10^−2 mSv/MBq.

And the “overall estimated radiation dose” value ([1]; subject 1)?
Its value is 14.5 mSv.

And the “overall estimated radiation dose” value ([1]; subject 2)?
Its value is 13.9 mSv.

And the “overall estimated radiation dose” value ([1]; subject 3)?
The value was 13.5 mSv.

What about the “overall estimated radiation dose” value ([1]; subject 4) of the same compound?
The value was 15.9 mSv.

And the “Effective Dose” value ([1]; whole body, subjects 1-4 = the 7th table-the 10th table)?
Its value is 2.63E−02 mSv/MBq and 2.35E−02 mSv/MBq and 2.16E−02 mSv/MBq and 3.38E−02 mSv/MBq.

What about the “TUNEL positive cells versus intensity of uptake” value [2] of the same compound?
Its value is “correlated”.

Source: patent US20250269072A1, “PROCESSES FOR PREPARING RADIOLABELLED CONJUGATES” (CENTENARY INSTITUTE OF CANCER MEDICINE AND CELL BIOLOGY, priority 2021, published 2025)
